The values that follow come from US11225505B2, “Antimicrobial polymyxin derivative compounds” (MONASH UNIVERSITY, priority 2015, dated 2022).

For series [1], the system named is Acinetobacter baumannii ATCC 17978. It counts as cell-based. Conditions: A. baumannii ATCC 17978; CAMHB broth microdilution. A digest of the protocol:
(§1)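 Values are MICs of the lipopeptide trifluoroacetic acid salts. Dilution series were set up in CAMHB as CLSI M100-S24 specifies.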
A general note: Dilution methods test growth across graded concentrations, often in twofold steps.

Series [2] concerns Acinetobacter baumannii FADDI-AB034. It counts as cell-based. Conditions: A. baumannii FADDI-AB034; CAMHB broth microdilution. A digest of the protocol: as §1
The subject of series [3] is Enterobacter cloacae FADDI-EC001. Format: cell-based. Conditions: E. cloacae FADDI-EC001; CAMHB broth microdilution. An outline of the steps:
(§2)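 Following CLSI procedure M100-S24, minimum inhibitory concentrations of trifluoroacetate lipopeptides are measured in cation-adjusted Mueller-Hinton medium by broth microdilution, alongside a polymyxin B sulphate control.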

Series [4] deals with Enterobacter cloacae FADDI-EC003. Format: cell-based. Conditions: E. cloacae FADDI-EC003; CAMHB broth microdilution. An outline of the steps: as §1
For series [5], the system named is Enterobacter cloacae FADDI-EC006. Format: cell-based. The settings on record: E. cloacae FADDI-EC006; CAMHB broth microdilution. An outline of the steps: as §1
Series [6] relates to Klebsiella pneumoniae FADDI-KP022. It counts as cell-based. Conditions: K. pneumoniae FADDI-KP022; CAMHB broth microdilution. A digest of the protocol:
as §1

Series [7] concerns Klebsiella pneumoniae FADDI-KP032. Format: cell-based. Conditions: K. pneumoniae FADDI-KP032; CAMHB broth microdilution. A digest of the protocol: as §1
For series [8], the system named is Klebsiella pneumoniae Kp BM1. Format: cell-based. The settings on record: K. pneumoniae Kp BM1; CAMHB broth microdilution. An outline of the steps:
as §2

The subject of series [9] is Pseudomonas aeruginosa ATCC 27853. It counts as cell-based. Conditions: P. aeruginosa ATCC 27853; CAMHB broth microdilution. An outline of the steps:
as §1

The subject of series [10] is Pseudomonas aeruginosa FADDI-PA01. Format: cell-based. The settings on record: P. aeruginosa FADDI-PA01; CAMHB broth microdilution. An outline of the steps: as §1
For series [11], the system named is Pseudomonas aeruginosa FADDI-PA022. It counts as cell-based. Conditions: P. aeruginosa FADDI-PA022; CAMHB broth microdilution. A digest of the protocol: as §1
Series [12] concerns Pseudomonas aeruginosa FADDI-PA038. It counts as cell-based. Conditions: P. aeruginosa FADDI-PA038; CAMHB broth microdilution. A digest of the protocol:
as §1

The test system of series [13] is Acinetobacter baumannii FADDI-AB030. The experiment in a line: microbe, parasite or virus in culture. It counts as cell-based. Conditions: A. baumannii FADDI-AB030; CAMHB broth microdilution. A digest of the protocol: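 Broth microdilution MIC in cation-adjusted Mueller-Hinton broth per CLSI M100-S24; lipopeptides tested as TFA salts. FADDI-AB030 is a multidrug-resistant clinical isolate. Polymyxin B sulphate served as control.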

The test system of series [14] is mouse kidney. The experiment in a line: Nephrotoxicity in a mouse model (kidney histology). It counts as in vivo. The settings on record: for Max Overall Kidney Histological Score / Max Kidney Histological Score: mice (n=3), subcutaneous 12 mg/kg free base every 2 h, 6 doses in one day; for Max Overall Kidney Histological Score: kidney ~20 h after last dose; for Max Kidney Histological Score: semiquantitative score 0 to +5. The protocol: Polymyxin B sulphate and colistin sulphate were supplied by Betapharma (Shanghai Co., Ltd, China). Stock solutions of compounds in saline (5 mg base/mL) were stored at 4° C. before use. Mice (n=3) were subcutaneously administered with the compound at 12 mg/kg of the free base form every 2 h, 6 doses in one day. At approximately 20 h after the last dose, mice were euthanised by inhalation of an overdose of isoflurane. Immediately after blood sampling, the right kidney from each mouse was collected immediately and placed in 10% formalin in 5 mL plastic tubes and the left kidney placed in a pre-weighed 14 mL plastic tubes, weighed again and stored at −20° C. pending homogenization and analysis of polymyxin B and colistin. The frozen kidney samples were thawed, homogenized in 2 mL of Milli-Q water and stored in a −20° C. freezer. The formalin-fixed kidneys were then sent to the Australian Phenomics Network-Histopathology and Organ Pathology (The University of Melbourne, Parkville, Australia) for histological examination. Samples were examined by a pathologist who was blind to the treatment groups.
Lesions were rated as follows: mild acute tubular damage with tubular dilation, prominent nuclei and a few pale tubular casts (Grade 1); severe acute tubular damage with necrosis of tubular epithelial cells and numerous tubular casts (Grade 2); acute cortical necrosis/infarction of tubules and glomeruli with or without papillary necrosis (Grade 3). The grades were given the following scores: grade 1=1, grade 2=4, and grade 3=10. The percentage of area of the kidney slice showing histological damage was scored as follows: <1%=0, 1 to <5%=1, 5 to <10%=2, 10 to <20%=3, 20 to <30%=4, 30 to <40%=5, and >40%=6. The overall kidney histological score was calculated as the product of the percentage score and grade score. These scores were then expressed as a semiquantitative score (Kidney Histological Score) on a scale of 0 to +5 for renal histological changes. These scores were assigned as follows: SQS 0=no significant change (overall score, <1); SQS +1=mild damage (overall score, 1 to <15); SQS +2=mild to moderate damage (overall score, 15 to <30); SQS +3=moderate damage (overall score, 30 to <45); SQS +4=moderate to severe damage (overall score, 45 to <60); and SQS +5=severe damage (overall score, ≥60) (Yousef, J., et al., (2011) Antimicrob. Agents and Chemother. 55 (9), 4044-4049).
Any compound with a kidney histological score of ≤+1.0 is considered to have a low nephrotoxicity in this model.

≈ marks a conversion by molar mass, not a printed value. Where a SMILES comes first, the peptide text is derived from it. Bridges are numbered along the chain shown (N, C = ends). [ ]: non-standard residue; d: D form. The star is where a group is joined. X52 = O=C(c1nc2ccccc2s1)*; Dab = NCC[C@H](N)C(=O)O; Abu = CC[C@H](N)C(=O)O; Dap = NC[C@H](N)C(=O)O

On to `CC[C@@H]1NC(=O)[C@@H](CC(C)C)NC(=O)[C@H](CCN)NC(=O)[C@@H](NC(=O)[C@H](CN)NC(=O)[C@@H](NC(=O)[C@H](CCN)NC(=O)c2nc3ccccc3s2)[C@@H](C)O)CCNC(=O)[C@H]([C@@H](C)O)NC(=O)[C@H](CCN)NC(=O)[C@H](CCN)NC1=O` [Compound 70] (X52-[Dab]T[Dap][Dab][Dab][dL][Abu][Dab][Dab]T; lactam 4-C), for which the Minimum inhibitory concentration in [1] was 0.5 µg/mL (≈ 0.435 µM); in [2] it was 1 µg/mL (≈ 0.871 µM); in series [3], 0.25 µg/mL (≈ 0.218 µM); in series [4], 0.25 µg/mL (≈ 0.218 µM); in series [5], 0.25 µg/mL (≈ 0.218 µM); in [6] it was less than 0.125 µg/mL. The Minimum inhibitory concentration in [7] is less than 0.125 µg/mL; in series [8], less than 0.125 µg/mL; in [9], 0.5 µg/mL (≈ 0.435 µM); in series [10], 0.25 µg/mL (≈ 0.218 µM); in [11], 0.5 µg/mL (≈ 0.435 µM); in [12], 1 µg/mL (≈ 0.871 µM). The Minimum inhibitory concentration in series [13] amounted to 0.5 µg/mL (≈ 0.435 µM). For the same compound, in [14], the “Max Overall Kidney Histological Score” value was determined as 0.0. Besides, the “Max Kidney Histological Score” value in series [14] is recorded as 0 (SQS 0=no significant change (overall score, <1)).

Colistin [reference compound]: the Minimum inhibitory concentration in [1] is 0.5 µg/mL; in [2], 0.5 µg/mL; in series [3] it was 0.25 µg/mL; in series [4], less than 0.125 µg/mL; in series [5] it was less than 0.125 µg/mL; in series [6] it was 1 µg/mL. In addition, the Minimum inhibitory concentration was 1 µg/mL in series [7]; less than 0.125 µg/mL in [8]; 1 µg/mL in [9]; 0.5 µg/mL in series [10]; 1 µg/mL in series [11]; 1 µg/mL in series [12]. For the same compound, in series [13], the Minimum inhibitory concentration worked out at 0.25 µg/mL. Also, in series [14] (12 mg/kg every 2 h, 6 doses, subcutaneous), the “nephrotoxicity in the mouse model (in words)” value is “severe nephrotoxicity”. In series [14], the “Max Overall Kidney Histological Score” value is reported as 60.0. Also, the “Max Kidney Histological Score” value in [14] is on record as “+5 (SQS +5=severe damage (overall score, ≥60))”.
